Measured values published in patent publication US20110091470A1, “ANTI-FLT3 ANTIBODIES” (IMCLONE LLC, priority 2008, published 2011).

Tests used:
SEM-K2 cells [1] = experiment: SEM-K2 xenograft human leukemia model; assay type: in vivo, NOD-SCID mice; details: 20 mg/kg i.p. two times weekly
Human Leukemia Cells = experiment: ADCC 51Cr release assay with human NK cells; assay type: cell-based
[2] = biological target: ITD-mutant FLT3 expressed on BaF3-ITD cells; experiment: cell-based or functional assay
[3] = biological target: wild-type FLT3 expressed on human leukemia cells (human) (UniProt P36888); experiment: cell-based or functional assay
EOL-1 leukemia cells = experiment: EOL-1 xenograft human AML leukemia model; assay type: in vivo, NOD-SCID mice
BaF3-ITD cells [4] = experiment: FL-independent cell proliferation assay ([3H]-thymidine); assay type: cell-based
Procedure: Harvest EOL-1 cells and wash three times using serum-free RPMI 1640 medium. Culture cells in serum-free RPMI 1640 medium for 12 hours. For BaF3-ITD cells, perform the proliferation assay in RPMI 1640 medium supplemented with 10% FCS in the absence of exogenous FL. Reconstitute cells in serum-free AIM-V medium, plate in triplicates in a flat-bottomed 96-well plate (1×104/100 μl/well) and incubate with varying concentrations of antibodies (from 0 to 100 nM) and 30 ng/ml of FL at 37° C. for 68 hours. As a background control, incubate cells with medium alone in the absence of exogenous FL. Pulse cells with 0.25 μCi/well of [^3H]-thymidine for 4 hours. Harvest cells and measure cpm in a PerkinElmer Wallace-1205 Betaplate Liquid Scintillation Counter (Wellesley, Mass.). Calculate the percent inhibition of FL-induced proliferation for EOL-1 cells; deduce the cpm of background proliferation (i.e., cell samples not stimulated with FL) from the cpm of all experimental samples. Calculate percent inhibition using the following formula: [(cpm of untreated sample−cpm of antibody-treated sample)/cpm of untreated sample]×100%.

BaF3-ITD cells [5] = experiment: BaF3-ITD leukemia model; assay type: in vivo, athymic (nu/nu) mice
Procedure: BaF3-ITD Leukemia Model: Initiate i.v. injection of groups of 10 athymic (nu/nu) mice with 5×10^4 BaF3-ITD cells. For statistic analysis, use the non-parametric one-tailed Mann-Whitney Rank Sum test (SigmaStat 2.03, SPSS, Inc., Chicago, Ill.). Start treatment one day after tumor injection. […] Treat the control group with purified human IgG (500 μg/dose). Monitor mice daily for survival.

MOLM-14 leukemia cells = experiment: MOLM14 xenograft AML leukemia model; assay type: in vivo, mice
Procedure: MOLM14 Xenograft AML Leukemia Model: Irradiate mice with 200 rads with a gamma irradiator and then i.v. inject with 10×10^6 MOLM-14 leukemia cells. Start treatment one day after tumor injection. […] Treat the control group with […] USP saline. Monitor mice daily for survival. Compare survival in the treatment groups by Log Rank test.

SEM-K2 cells [6] = experiment: Combination therapy with EB10 and MTX in SEM-K2 leukemia model; assay type: in vivo, NOD/SCID mice; details: monotherapy: EB10 10 mg/kg i.p. 2×/week; MTX 100 mg/kg Q7D
Procedure: One day prior to the start of treatment, i.v. inject 65, 7 weeks old, male NOD/SCID mice with 5×10^5 SEM-K2 cells suspended in PBS in a total volume of 200 μl. Drop from the study mice receiving less than 90% of cells intravenously.
Prepare MTX (Sigma Chemical, Cat # M9929) in USP Saline at a concentration of 10 mg/ml and dose Q7D for three cycles. […] Record mouse survival daily. Follow the mice for survival, and sacrifice any mouse displaying signs of morbidity/mortality; mark as dead on the day of sacrifice. End the study on day 168 and sacrifice any mice surviving to that point. Compare survival in the treatment groups by Log Rank Test between treatment groups.

[7] = system: human leukemia cells (human CD45) in bone marrow; experiment: Bone marrow engraftment of human leukemia cells; assay type: in vivo, mice; details: 500 μg/dose; versus control-IgG treated group
Procedure: Bone Marrow Engraftment of Human Leukemia Cells: Harvest bone marrow from the femurs of EB10-treated mice (500 μg/dose) and the control-IgG treated group at […]. Analyze cells for human CD45 by flow cytometry at 6 and 14 weeks post leukemia cell injection for the degree of tumor cell infiltration of bone marrow. Compare the degree of tumor cell infiltration of bone marrow using immunohistochemical staining with a fluorescence-labeled anti-human CD45 antibody.

Stat5 = Stat5 phosphorylation assay; details: EOL-1, wild type
[8] = 100 μg/dose i.p. three times weekly
[9] = 500 μg/dose i.p. three times weekly

Sequence of ITD-mutant FLT3 expressed on BaF3-ITD cells (chain, as listed by the source mutant limits assumed, form in doubt): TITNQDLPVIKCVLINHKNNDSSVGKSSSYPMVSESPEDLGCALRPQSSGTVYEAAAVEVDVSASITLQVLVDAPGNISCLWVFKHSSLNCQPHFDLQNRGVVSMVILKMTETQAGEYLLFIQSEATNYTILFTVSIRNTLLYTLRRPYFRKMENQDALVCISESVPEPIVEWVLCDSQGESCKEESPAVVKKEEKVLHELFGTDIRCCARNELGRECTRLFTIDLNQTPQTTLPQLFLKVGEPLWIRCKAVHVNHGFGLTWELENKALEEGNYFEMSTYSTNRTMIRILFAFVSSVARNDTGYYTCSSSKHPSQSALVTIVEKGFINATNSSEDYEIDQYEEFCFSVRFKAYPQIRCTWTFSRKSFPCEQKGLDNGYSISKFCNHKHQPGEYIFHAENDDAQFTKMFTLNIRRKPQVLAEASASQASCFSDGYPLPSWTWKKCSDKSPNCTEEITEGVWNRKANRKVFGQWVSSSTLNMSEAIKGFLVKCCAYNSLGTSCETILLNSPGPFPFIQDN
Sequence of wild-type FLT3 expressed on human leukemia cells (human) (P36888 27-993 limits assumed): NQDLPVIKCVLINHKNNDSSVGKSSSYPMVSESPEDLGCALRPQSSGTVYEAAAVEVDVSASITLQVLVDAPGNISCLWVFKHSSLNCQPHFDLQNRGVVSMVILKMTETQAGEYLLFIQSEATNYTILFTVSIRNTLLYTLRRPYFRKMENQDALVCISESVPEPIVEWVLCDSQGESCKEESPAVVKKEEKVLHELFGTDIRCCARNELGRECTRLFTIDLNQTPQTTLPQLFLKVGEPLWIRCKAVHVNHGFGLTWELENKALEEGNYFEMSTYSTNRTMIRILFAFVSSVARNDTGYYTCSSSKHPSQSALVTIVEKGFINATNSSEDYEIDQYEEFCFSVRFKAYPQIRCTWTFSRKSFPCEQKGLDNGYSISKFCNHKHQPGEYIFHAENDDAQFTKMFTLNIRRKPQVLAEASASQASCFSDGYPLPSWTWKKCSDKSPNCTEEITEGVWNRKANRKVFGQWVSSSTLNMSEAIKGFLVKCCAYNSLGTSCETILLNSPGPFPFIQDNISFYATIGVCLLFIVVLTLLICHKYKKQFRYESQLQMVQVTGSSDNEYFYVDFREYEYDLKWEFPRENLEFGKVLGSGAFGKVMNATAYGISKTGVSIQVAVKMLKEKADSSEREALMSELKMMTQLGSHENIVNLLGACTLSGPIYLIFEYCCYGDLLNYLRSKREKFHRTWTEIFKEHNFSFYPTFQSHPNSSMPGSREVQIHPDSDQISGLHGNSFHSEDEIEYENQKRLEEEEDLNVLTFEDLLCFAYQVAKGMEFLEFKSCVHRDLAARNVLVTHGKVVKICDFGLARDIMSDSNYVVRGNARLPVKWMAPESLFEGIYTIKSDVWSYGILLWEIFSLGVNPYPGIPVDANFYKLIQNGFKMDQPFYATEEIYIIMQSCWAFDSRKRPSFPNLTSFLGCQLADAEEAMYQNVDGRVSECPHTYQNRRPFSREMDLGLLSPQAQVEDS

Question: For “D4-3: recombinant human monoclonal antibody, full length IgG1κ targeting human FLT3; heavy chain SEQ ID NO 27, light chain SEQ ID NO 30 [Antibody D4-3]”, which median survival (SEM-K2 cells [1]) is on record?
Answer: 55.5 days

Question: What about the “ADCC response (in words)” value (Human Leukemia Cells) of the same molecule?
Answer: less potent ADCC response

Question: What does the source list for control IgG (antibody)?
Answer: % Inhibition of FL-independent proliferation of BaF3-ITD cells at 100 nM [2]: 2%; % Inhibition of FL-induced proliferation of EOL-1 cells at 100 nM [3]: 0.4%

Question: With “EB10: recombinant human monoclonal antibody, full length IgG1κ targeting human FLT3; heavy chain SEQ ID NO 25, light chain SEQ ID NO 28” as the molecule, how does the “effect on survival (in words)” value (EOL-1 leukemia cells; 10 μg) read?
Answer: No effect

Question: And the mean survival time (EOL-1 leukemia cells; [8])?
Answer: 52.8 ± 18.6 days

Question: What about the mean survival time (EOL-1 leukemia cells; 250 μg/dose i.p. three times weekly) of the same molecule?
Answer: 55.3 ± 18.9 days

Question: What about the mean survival time (EOL-1 leukemia cells; [9]) of the same molecule?
Answer: 62.3 ± 18.7 days

Question: What about the median survival (SEM-K2 cells [1]) of the same molecule?
Answer: 108.5 days

Question: What about the “% Inhibition of FL-independent proliferation (Mean ± Standard deviation)” value (“% Inhibition … (Mean ± Standard deviation)” for short) (BaF3-ITD cells [4]; 6 nM) of the same molecule?
Answer: 9.6 ± 3.1%

Question: What about the “% Inhibition … (Mean ± Standard deviation)” value (BaF3-ITD cells [4]; 13 nM) of the same molecule?
Answer: 13.0 ± 4.0%

Question: What about the “% Inhibition … (Mean ± Standard deviation)” value (BaF3-ITD cells [4]; 25 nM) of the same molecule?
Answer: 23.3 ± 0.6%

Question: What about the “% Inhibition … (Mean ± Standard deviation)” value (BaF3-ITD cells [4]; 50 nM) of the same molecule?
Answer: 28.6 ± 3.1%

Question: And the “% Inhibition … (Mean ± Standard deviation)” value (BaF3-ITD cells [4]; 100 nM)?
Answer: 29.2 ± 3.0%

Question: And the mean survival time (BaF3-ITD cells [5]; [8])?
Answer: 66.5 ± 32.9 days

Question: What about the mean survival time (BaF3-ITD cells [5]; [9]) of the same molecule?
Answer: 63.4 ± 44.6 days

Question: What about the “ADCC response (in words)” value (Human Leukemia Cells) of the same molecule?
Answer: strong ADCC response

Question: What about the median survival (MOLM-14 leukemia cells; 0.2 mg/kg i.p. two times weekly) of the same molecule?
Answer: 38.5 days

Question: What about the median survival (MOLM-14 leukemia cells; 10 mg/kg i.p. two times weekly) of the same molecule?
Answer: 63 days

Question: And the “mouse survival in comparison to the control group (in words)” value (SEM-K2 cells [6])?
Answer: significantly prolonged mouse survival

Question: What about the “number of tumor cells in bone marrow” value [7] of the same molecule?
Answer: decreased significantly

Question: What about the “Inhibition of Stat5 Phosphorylation (IC50)” value (Stat5) of the same molecule?
Answer: No effect

Question: How did the “mouse survival in comparison to the control group (in words)” value (SEM-K2 cells [6]) turn out when `CN(Cc1cnc2nc(N)nc(N)c2n1)c1ccc(C(=O)N[C@@H](CCC(=O)O)C(=O)O)cc1` [MTX, methotrexate, reference compound] was run?
Answer: prolonged survival
